The target in assay [1] is αHL pore (Staphylococcus aureus, UniProt P09616). The class given is biochemical, staphylococcal.
Assay [2] addresses WT αHL (Staphylococcus aureus, UniProt P09616). The assay is classed as biochemical, staphylococcal. As to conditions: pH 7.
Assay [3] has as its target wild-type (WT) staphylococcal α-hemolysin (αHL) heptamer (Staphylococcus aureus, UniProt P09616). The class given is biochemical. As to conditions: pH 7.

Sequence of wild-type (WT) staphylococcal α-hemolysin (αHL) heptamer (P09616 27-319 limits assumed): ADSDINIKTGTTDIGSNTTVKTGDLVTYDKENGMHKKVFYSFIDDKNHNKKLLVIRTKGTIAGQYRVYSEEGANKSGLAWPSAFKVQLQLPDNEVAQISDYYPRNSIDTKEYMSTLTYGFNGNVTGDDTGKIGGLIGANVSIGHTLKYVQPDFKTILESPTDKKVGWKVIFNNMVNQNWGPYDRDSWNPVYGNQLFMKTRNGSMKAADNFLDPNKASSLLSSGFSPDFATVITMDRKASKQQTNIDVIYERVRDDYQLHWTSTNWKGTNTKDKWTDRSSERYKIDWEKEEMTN
Sequence of WT αHL (P09616 27-319 limits assumed): as above
Sequence of αHL pore (P09616 27-319 limits assumed): as above

On to γ-cyclodextrin [γCD], for which the “residence time (toff)” value in assay [1] was 421 ± 22 ms. Also, in assay [2], the “ionic current blocked by transient binding to an αHL pore” value was “around 60%”. Also, the “residence time (toff) for γCD bound to the αHL pore” value in assay [3] was determined as 495 ± 51 ms.
